US20050064044A1, “GSK-3beta inhibitors in the treatment of bone-related diseases” (priority 2003, published 2005)
Entries after “also recorded” stand apart in the source; their conditions may differ.

How the values were obtained:
[1] = system: Wnt/β-catenin signalling (GSK-3β inhibition) in C3H10T1/2 cells; assay: Wnt signalling luciferase reporter construct in C3H10T1/2 cells; assay type: cell-based; conditions: C3H10T1/2 cells stimulated for 24 h; firefly normalized to Renilla luciferase; FIG. 1
Experimental: Whether inhibition of GSK-3β in C3H10T1/2 cells leads to Wnt/β-catenin signalling activation was investigated.
C3H10T1/2 cells were transiently transfected using Fugen6 (Boehringer) with a Wnt signalling luciferase reporter construct (van de Wetering et al., 1997). To assess transfection efficacy, 20 ng of pRL-TK (Promega) encoding a Renilla luciferase gene downstream of a minimal HSV-TK promoter was systematically added to the transfection mix. Cells were stimulated with LiCl or with NaCl for 24 h. Cells were lysated and luciferase assays were performed with the Dual Luciferase Assay Kit (Promega) according to the manufacturer's instructions. 10 μl of cell lysate was assayed first for firefly luciferase and then for Renilla luciferase activity. Firefly luciferase activity was normalized to Renilla luciferase activity.

LRP5 knockout mice = assay: Bone phenotype of LRP5 knockout mice, micro-CT tomodensitometric analysis of tibia; assay type: in vivo
Experimental: In vivo model uses LRP5 knock-out animals that show osteopenia phenotype resulting from the absence of the Wnt canonical signalling pathway, said signalling pathway involving GSK-3β. Thanks to this model, the effect of GSK-3β inhibitors on bone mass can be observed.
LRP5 knockout mouse model has been described as an osteopenic mouse model (Kato et al., 2002).
LiCl solution was prepared in distillated water at 55 mg/ml. Compound was administered by micropump Alzet (ref: 1002, Charles Rivers, France) to 2-3 week-old LRP5 knockout (KO) mice for 2 weeks. Tibia were prepared for tomographic analysis (Tomodensitometer Scanco μCT20, Basserdorf, Switszerland). Micro-CT scans of the metaphyseal tibia were performed at an isotropic resolution of 9 μm, to obtain trabecular bone structural parameters. Using a two- and three-dimensional model and a semiautomatic contouring algorithm, three-dimensional bone volume, bone surface, and trabecular thickness were determined (FIG. 6).
Statistical significance was determined by the ANOVA unpaired t'test.
Results of tomodensitometric analysis of metaphyseal trabecular part of tibia from 5 week-old and 4 week-old LRP5-KO mice treated with vehicle or LiCl (200 mg/kg/d) during 15 days are given in FIGS. 4 and 5, respectively.

C3H10T1/2 cells = assay: Alkaline phosphatase (ALP) osteoblast differentiation marker in C3H10T1/2 cells; assay type: cell-based; conditions: C3H10T1/2 cells stimulated for 48 h; ALP activity normalized for total protein; FIG. 2
Text: In vitro model used the pluripotent mesenchymal cell line C3H10T1/2 that is able to differentiate into osteoblasts when triggered with the right compound or protein. The ability of a compound to induce these C3H10T1/2 cells to differentiate into osteoblasts can be monitored by, for instance, measuring the expression of the osteoblast differentiation marker, alkaline phosphatase (ALP).
Whether inhibition of GSK-3β by LiCl in C3H10T1/2 cells leads to the expression of ALP was investigated.
C3H10T1/2 cells were stimulated with LiCl or with NaCl for 48 h. ALP activity was determined in cell lysates using Alkaline Phosphatase Opt kit (Roche Molecular Biochemicals). Cell lysates were analyzed for protein content using micro-BCA Assay kit (Pierce), and ALP activity was normalized for total protein concentration.

[2] = 4 week-old LRP5-KO mice treated for 15 days, vs vehicle, FIG. 6B/6D
[3] = 4 week-old LRP5-KO mice, 200 mg/kg/d during 15 days, metaphyseal trabecular tibia, vs vehicle, FIG. 5
[4] = 5 week-old LRP5-KO mice, 200 mg/kg/d during 15 days, metaphyseal trabecular tibia, vs vehicle, FIG. 4

[Cl-].[Li+] [LiCl, lithium]
luciferase expression (Wnt-signalling luciferase reporter) [1]: able to activate luciferase expression | bone volume, 3-D reconstruction of trabecular part of tibia (LRP5 knockout mice; [2]): increase | trabecular thickness, 3-D reconstruction of trabecular part of tibia (LRP5 knockout mice; [2]): increase | BV/TV (bone volume) (LRP5 knockout mice; [3]): significantly increase | Tb.N (trabecular number) (LRP5 knockout mice; [3]): significantly increase | Tb.Th (trabecular thickness) (LRP5 knockout mice; [3]): significantly increase | BV/TV (bone volume) (LRP5 knockout mice; [4]): significantly increase | Tb.N (trabecular number) (LRP5 knockout mice; [4]): significantly increase | bone phenotype (osteopenia) of LRP5 knockout mice (LRP5 knockout mice; LRP5-KO mice, FIGS. 4 and 5): partially reversed; also recorded: partly restored | expression of the ALP osteoblast differentiation marker (C3H10T1/2 cells): able to stimulate the expression of the ALP osteoblast differentiation marker
